Laboratory results from US11365216B2, “Antiviral immunotropic agent for the treatment of acute respiratory viral infections” (PVP LABS PTE. LTD., priority 2018, dated 2022).
Where a SMILES comes first, the peptide text is derived from it. [ ]: non-standard residue; d: D form.

Key:
[1] = system: influenza A virus/New Caledonia/20/99 (H1N1); experiment: microbe, parasite or virus in culture; assay type: cell-based
[2] = system: macrophages; experiment: phagocytosis and NBT reduction of peritoneal exudate macrophages; assay type: in vivo, mice; settings: 0.2 mg/kg single dose, IM or intranasal
Protocol: (§1) Dalargin is currently authorised for human use in the single dose range from 1 to 5 mg, which, if recalculated for mice, corresponds to z0.2-1 mg/kg. Therefore, the dose used for evaluating the efficacy of the drug in murine phagocytic peritoneal exudate cells was 0.2 mg/kg. Of additional interest was an investigation of possible effect of the route of administration of the drug on functional activity of the phagocytes.
(§2) The immunomodulating activity of the drug was evaluated by microscopy. The test was performed in 60 male BALB/c mice with a body weight of 18-22 g. The animals were allocated to 6 equal groups of 10 mice each. Two groups served as controls. The active therapy groups received Dalargin IM or intranasally at a single dose of 0.2 mg/kg. Macrophage and neutrophil extraction procedures were performed on the next day after administering the study drugs.
In order to isolate macrophages, the mice were euthanised on day 3 after the peptone injection. Then 3-4 mL of medium 199 with 10% of foetal bovine serum was administered intraperitoneally, and the liquid was aspirated. […]
(§3) The phagocytic activity of neutrophils was evaluated by the following parameters: phagocytic index and phagocyte number. Functional activity of macrophages was evaluated by microscopy, as well as by their ability to absorb nitroblue tetrazolium (NBT) in the activated state.

[3] = system: influenza A virus/Aichi/2/69 (H3N2); experiment: influenza-induced pneumonia in mice; assay type: in vivo
[4] = system: neutrophils; experiment: phagocytic activity of peptone-mobilised neutrophils; assay type: in vivo, mice; settings: 0.2 mg/kg single dose, IM or intranasal
Protocol: as §1, §2
The mice were given an intraperitoneal injection of 3-4 mL of 10% peptone solution as a chemoattractant to cause neutrophil accumulation, and 2 hours later the mice were euthanised using chloroform 2 hours later. […]
as §3

[5] = system: type 5 adenovirus; experiment: suppression of cytopathogenic effect of adenovirus in monolayer HeLa culture; assay type: cell-based
Protocol: The work was performed using type 5 adenovirus, which was procured in 1998 from the D.I. Ivanovsky Research Institute of Virology and stored in the Specialised Collection of a branch of the 48th Central Research Institute of the Ministry of Defence of Russia—Computing Centre.
A HeLa type culture (cervical carcinoma cells) with a density of 200-250 thousand/mL was used. Semisynthetic growth media based on Hank's solution containing 7.5 and 2% bovine serum respectively were used. A 48-hour monolayer culture of HeLa cells was infected with type 5 adenovirus at a dose of 0.01 TCID50 per cell. The monolayer culture was then incubated at 37±0.5° C. for 96 hours.
The antiviral activity of the product was evaluated by the suppression of the cytopathogenic effect (CPE) of the virus in the HeLa culture after the virus was applied to an established monolayer culture of HeLa cells.
Efficacy criteria of the test drug were: CPE detection rate and inhibitory constant (Ki, %). The inhibitory constant was calculated according to the following formula: Ki=100. (Cc-Ct)/Cc, where Cc and Ct is the infectious titre of the virus in the control sample and test sample respectively.

[6] = system: TNF-α; experiment: production of pro-inflammatory cytokines in peripheral blood mononuclear cell culture; assay type: cell-based, healthy donors; settings: 5.10^−8 M, relative to control samples (100%)
Protocol: (§4) The effect of Dalargin on the synthesis of cytokines IL-1 (interleukin-1), IL-6 (interleukin-6) and TNF-α (tumour necrosis factor α) was evaluated in an in vitro experiment using a peripheral blood mononuclear cell culture of healthy donors (n=20). Stimulation with an enterobacterial polysaccharide was used to induce the production of pro-inflammatory cytokines.
(§5) In order to obtain a suspension of mononuclear cells, blood was diluted at a 1:2 ratio with medium 199, applied to a Ficoll-Paque density gradient, d=1.077 g/cm^3, and centrifuged at 400 g for 40 min. The white ring produced at the phase interface, which contained mononuclear cells, was carefully withdrawn with a Pasteur pipette and washed twice with medium 199 using 10-minute-long centrifugation (200 g). The precipitate was resuspended in a nutrient medium, counted in a Goryayev counting chamber and adjusted to the required concentration.
(§6) Dalargin was added at a molar concentration of 5.10^−8 M (Z0.036 μg/mL) to the test samples with the polysaccharide and mononuclear cell suspension. The drug was not added to control samples.
(§7) Cytokine quantitation in blood serum was performed using two-site ELISA.

[7] = system: IL-6; experiment: as above; assay type: cell-based, healthy donors; settings: 5.10^−8 M, relative to control samples (100%)
Protocol: as §4, §5, §6, §7

[8] = system: IL-1; experiment: as above; assay type: cell-based, healthy donors; settings: 5.10^−8 M, relative to control samples (100%)
Protocol: as §4, §5, §6, §7

[9] = system: natural killer cells; experiment: functional (cytotoxic) activity of natural killer cells, radiometric assay with K-562 target cells; assay type: cell-based, healthy donors; settings: 5.10^−8 M (≈0.036 μg/mL), 24 hours
Protocol: When evaluating the effect of Dalargin in vitro on the functional activity of NK cells, these cells were obtained from a suspension of peripheral blood mononuclear cells of healthy donors (n=20).
Functional activity of NK cells was determined on the basis of the cytotoxic reaction (NK can lyse cells of myeloblastoid and lymphoblastoid lines) using the radiometric assay. To perform it, cells of the K-562 myeloblastoid line at a concentration of 10^6/mL were incubated for one hour at 37° C. with ^3H-uridine at 3 μCi/mL of the cell suspension on day 2 after subcultivation. After the incubation, the cells were washed off the radiolabel in medium 199 three times. […]
In one case, after the effector cells and target cells were applied to the plates, Dalargin was added at a molar concentration of 5.10^−8 M (≈0.036 μg/mL). […] The plates were then incubated for 24 hours in a CO2 incubator at 37° C., whereupon the contents were transferred to fibreglass filters, washed, dried, placed in vials with a scintillation liquid, and radioactivity was determined using a β-particle counter. cytotoxicity index (CI) was determined using the formula CI=((A−B)/(C−B)). 100%, where A is radioactivity of target cells in the presence of effector cells, B is residual radioactivity after treating the target cells with Triton X-100, C is radioactivity in target cells in the absence of effector cells.

[10] = system: IFN-α; experiment: interferon-inducing effect in mice (ELISA of blood plasma); assay type: in vivo; settings: 24 hours after administration; Dalargin 1 mg/kg, ARBIDOL intragastrically; versus control groups
Protocol: The experiments were performed in 40 CBA×C57BI/6/male mice with a body weight of 20-25 g. The animals were randomised in 4 groups (of 10 animals each): two active groups (receiving Dalargin or ARBIDOL) and two control groups. One control group was intended for determining baseline INF levels (before the start of the experiment), the other group was intended for determining INF levels at 24 hours after the administration of placebo (saline), ensuring the equivalence of conditions.
Dalargin was administered at a dose of 1 mg/kg, which is equivalent to a human dose of 5-6 mg. ARBIDOL was administered intragastrically as a suspension premix in 1% starch gel. Statistical analysis was performed using the Bonferroni correction for multiple testing.
IFN-α levels in the blood plasma of mice was measured at 24 hours after the administration of the drugs. Blood for interferon determination was sampled from the heart under Nembutal anaesthesia (60 mg/kg). […] IFN levels were determined using commercially available enzyme-linked immunosorbent assay (ELISA) kits manufactured by VeriKine™ (USA). […]
The test samples and diluted standards were applied to the plate in duplicate. […] The activity of bound peroxidase was measured on a UNIPLAN™ (Picon) immunoassay analyser at 450 nm.

Row | SMILES | inhibition at 10 µg/mL ([1]; Influenza A virus, H1N1, MDCK, concentration of 10.0 μg/mL, read-out: inhibiting effect on the reproduction of epidemic virus strains) [%] | phagocytosis of peritoneal exudate macrophages, ability to reduce NBT [2] | efficacy relative to Arbidol in terms of mean lifetime and survival rate ([3]; Dalargin 2 mg/kg/day IM or intranasal) | mortality due to influenza-induced pneumonia ([3]; IM or intranasal 2 mg/kg/day for 5 days, relative to placebo) | weight loss ([3]; relative to control/placebo, weighed on days 3, 5 and 15) | MIC values (MIC50, concentration inhibiting virus reproduction by 50%), comparison ([1]; MDCK tissue culture, hexapeptide versus ARBIDOL) | phagocytic activity (phagocytosis) of peptone-mobilised neutrophils [4] | protective efficacy ([5]; 10 μg/mL) [%] | growth of protective efficacy, administration 24 h before challenge relative to 2 hours after challenge ([5]; added to the maintenance medium) | protection of cells from the cytopathogenic effect of the virus ([5]; administered 24 h before challenge, 0.01 TCID50 per cell, concentrations of 100, 20 and 10) | lipopolysaccharide-induced production of TNF-α [6] | lipopolysaccharide-induced production of IL-6 [7] | lipopolysaccharide-induced production of IL-1 [8] | effect on cytotoxic activity of natural killer cells [9] | IFN-α level in blood plasma/serum [10]
1 | CCOC(=O)c1c(CSc2ccccc2)n(C)c2cc(Br)c(O)c(CN(C)C)c12 [ARBIDOL, reference compound] | 100 | – | – | – | – | – | – | – | – | – | – | – | – | – | –
2 | CC(C)C[C@H](NC(=O)[C@H](Cc1ccccc1)NC(=O)CNC(=O)[C@@H](C)NC(=O)[C@@H](N)Cc1ccc(O)cc1)C(=O)N[C@@H](CCCNC(=N)N)C(=O)O [Dalargin, tyrosyl-D-alanyl-glycyl-phenylalanyl-leucyl-arginine] (H-Y[dA]GFLR-OH) | – | stimulating effect | greater efficacy | reduces the mortality | reduces weight loss | lower MIC values | capable of increasing the phagocytic activity | 40.0 | 10-20% | almost completely protected | significant suppression | significant suppression | significant suppression | immunotropic potential | significant production
